This is an account of results in patent US12466813B2, “PRC1 inhibitors and methods of treatment therewith” (The Regents of the University of Michigan, priority 2018, dated 2025).

In this assay the target is T1, RING1B-BMI1 (Homo sapiens, UniProt Q99496).
T1 sequence (Q99496 1-336): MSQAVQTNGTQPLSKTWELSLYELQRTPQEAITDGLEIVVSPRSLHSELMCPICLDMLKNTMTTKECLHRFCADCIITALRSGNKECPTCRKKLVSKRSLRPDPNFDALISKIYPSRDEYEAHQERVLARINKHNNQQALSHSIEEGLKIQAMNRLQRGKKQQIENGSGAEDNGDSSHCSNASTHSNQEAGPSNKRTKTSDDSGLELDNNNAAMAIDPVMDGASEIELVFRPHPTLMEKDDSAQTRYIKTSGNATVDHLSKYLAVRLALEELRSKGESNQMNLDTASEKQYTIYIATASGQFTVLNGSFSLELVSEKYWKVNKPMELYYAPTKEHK
T1 sequence (P35226 1-326 partner): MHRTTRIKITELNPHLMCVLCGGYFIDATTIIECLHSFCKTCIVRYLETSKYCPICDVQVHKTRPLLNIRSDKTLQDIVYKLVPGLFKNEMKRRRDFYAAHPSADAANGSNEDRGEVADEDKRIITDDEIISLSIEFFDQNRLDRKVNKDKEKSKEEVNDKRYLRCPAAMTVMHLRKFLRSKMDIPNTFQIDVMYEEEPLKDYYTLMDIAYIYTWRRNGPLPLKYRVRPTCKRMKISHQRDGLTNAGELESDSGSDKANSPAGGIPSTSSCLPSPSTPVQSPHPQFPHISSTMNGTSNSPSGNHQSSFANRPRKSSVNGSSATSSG
As to the kind of experiment: KD classes of Table A (direct binding to Ring1B-Bmi1). The note with it: class given in Table A. The procedure: Experiments were conducted during development of embodiments herein to develop small molecule inhibitors of PRC1 by targeting the Ring1B-BMI1 E3 ligase. These compounds bind directly to Ring1B-Bmi1 with low-micromolar affinity and inhibit PRC1 in vitro and in cells. […] Experiments were conducted during development of embodiments herein to test COMPOUND 1 in leukemia stem cell models represented by TEX cells (Ref. 22; herein incorporated by reference in its entirety) and M9-ENL1 cells (Ref. 23; herein incorporated by reference in its entirety). […] In some embodiments, COMPOUND 1 and COMPOUND 1 analogs are find use as agents in targeting leukemia and other cancer stem cells.
The compounds listed in Table A have been synthesized and/or tested for activity in inhibiting activity of PRC1 complex, and are within the scope herein.

In general, Kd refers to the constant that tells how readily two partners part at equilibrium. As for `COc1cc(-c2[nH]c(C(=O)O)c(-c3c(Cl)ccc4[nH]ccc34)c2C(C)C)c2cc[nH]c2c1` [compound 11], the Kd is under 20 µM.

`CC(C)c1c(-c2cc(F)cc3[nH]ccc23)[nH]c(C(=O)O)c1-c1cccc2[nH]c3c(c12)CCCC3=O` [compound 211] registered a Kd of under 20 µM.

In turn, `CC(C)c1c(-c2cccc3[nH]cc(CCO)c23)[nH]c(C(=O)O)c1-c1c(Cl)ccc2[nH]ccc12` [compound 27] came in with a Kd of under 20 µM.

Turning to `COc1ccc(C)cc1-c1ccc(C(=O)O)[nH]1` [compound 137], the equilibrium dissociation constant (Kd) is over 100 µM.

In turn, `Cc1ccccc1-c1ccc(C(=O)O)[nH]1` [compound 154] gave a Kd of over 100 µM.

Molecule `CCOc1cccc(-c2ccc(C(=O)O)[nH]2)c1` [compound 148] had a Kd of over 100 µM.

Regarding `CC(C)c1c(-c2cccc3[nH]ccc23)cn(CC(=O)O)c1-c1cccc2[nH]ccc12` [compound 76], the Kd is under 20 µM.

In turn, `CC(C)c1cc(-c2c(C(=O)O)[nH]c(-c3cc(F)cc4[nH]ccc34)c2C(C)C)c2ccn(CC(=O)O)c2c1` [compound 55] returned a dissociation constant (Kd) of under 20 µM.

As to `COc1cc(-c2c(C(=O)O)[nH]c(-c3cc(F)cc4[nH]ccc34)c2CC(C)C)c2cc[nH]c2c1` [compound 174], the Kd was under 20 µM.

Molecule `COc1cnc2[nH]ccc2c1-c1c(C(=O)O)[nH]c(-c2cc(F)cc3[nH]ccc23)c1C(C)C` [compound 247] came in with a Kd of under 20 µM.

As for `COCc1ccc2[nH]ccc2c1-c1c(C(=O)O)[nH]c(-c2cc(F)cc3[nH]ccc23)c1C(C)C` [compound 237], the Kd was under 20 µM.

Molecule `CC(C)c1c(-c2cc(F)cc3[nH]ccc23)[nH]c(CS(N)(=O)=O)c1-c1cccc2[nH]ccc12` [compound 219] had a Kd of under 20 µM.

For the molecule `CC(C)c1c(-c2cc(F)cc3[nH]ccc23)[nH]c(C(=O)O)c1-c1cccc2[nH]c(-c3ccccc3)cc12` [compound 259], the dissociation constant (Kd) is under 20 µM.

On to `COCCC(=O)NCCc1c[nH]c2cc(F)cc(-c3[nH]c(C(=O)O)c(-c4c(Cl)ccc5[nH]ccc45)c3C(C)C)c12` [compound 72], for which the Kd was under 20 µM.

For the molecule `CCc1c(-c2cccc3[nH]ccc23)[nH]c(C(=O)O)c1-c1cccc(Cl)c1Cl` [compound 84], the Kd was in the range of 20 to 50 µM.

As to `CC(C)c1c(-c2cc(F)cc3[nH]ccc23)[nH]c(C(=O)O)c1-c1cccc2[nH]c(-c3ccno3)cc12` [compound 225], the Kd was under 20 µM.

`O=C(O)c1ccc(-c2cccc(OCc3ccccc3)c2)[nH]1` [compound 135]: the Kd is over 100 µM.

`COc1cc(-c2c(C(=O)O)[nH]c(-c3cc(F)cc4[nH]ccc34)c2C(C)C)c2ccn(CC(=O)NCc3nc(C)cs3)c2c1` [compound 179]: the Kd is under 20 µM.

Turning to `CC(C)c1c(-c2cccc3[nH]ccc23)c(C(=O)O)n2c1-c1cc(F)cc3ccn(c13)S(=O)(=O)C2` [compound 273], the Kd was under 20 µM.

Turning to `O=C(O)c1ccc(-c2ccc(C(F)(F)F)cc2)[nH]1` [compound 150], the Kd was over 100 µM.

In the case of `Cc1c[nH]c2cccc(-c3c(C(=O)O)[nH]c(-c4cccc5[nH]ccc45)c3C(C)C)c12` [compound 34], the dissociation constant Kd is under 20 µM.

`COc1ccc(-c2c(C(=O)O)[nH]c(-c3cc(F)cc4[nH]ccc34)c2C(C)C)c(Cl)c1` [compound 56] yielded a Kd of under 20 µM.

Turning to `CC(C)c1c(-c2cc(F)cc3[nH]ccc23)[nH]c(C(=O)O)c1-c1ccnc2[nH]c(-c3cc[nH]n3)cc12` [compound 249], the Kd was under 20 µM.

On to `CCc1c(-c2cccc3[nH]ccc23)[nH]c(C(=O)O)c1-c1cccc(OC)c1` [compound 85], for which the Kd lay within 20 to 50 µM.

Take `CCc1c(-c2cccc3[nH]ccc23)[nH]c(C(=O)O)c1-c1cccc2c1ccn2CC` [compound 21]: the Kd was under 20 µM.

Molecule `CCc1cccc(-c2ccc(C(=O)O)[nH]2)c1` [compound 129] displayed a Kd of over 100 µM.

`CCc1c(-c2cccc3[nH]ccc23)[nH]c(C(=O)O)c1-c1ccc(OC)cc1` [compound 87] showed a Kd of 20 to 50 µM.

Molecule `CCc1c(-c2cccc3[nH]ncc23)[nH]c(C(=O)O)c1-c1ccc(OC)cc1Cl` [compound 91] showed a Kd of 50 to 100 µM.

Regarding `CCc1c(-c2cccc3[nH]ccc23)[nH]c(C(=O)O)c1-c1ccc([N+](=O)[O-])cc1` [compound 114], the Kd is over 100 µM.

`CC(C)c1c(-c2cc(Cl)cc3[nH]ccc23)[nH]c(C(=O)O)c1-c1c(Cl)ccc2[nH]ccc12` [compound 13] returned a Kd of under 20 µM.

In turn, `CC(C)c1c(-c2cc(F)cc3[nH]ccc23)[nH]c(C(=O)O)c1-c1cccc2[nH]c(CCS(N)(=O)=O)cc12` [compound 231] yielded a Kd of under 20 µM.

As to `CC(C)c1c(-c2cc(F)cc3[nH]ccc23)[nH]c(C(=O)O)c1-c1cccc2ncsc12` [compound 204], the Kd was under 20 µM.

For `C#CCCCCC(=O)NCCc1c[nH]c2cc(F)cc(-c3[nH]c(C(=O)O)c(-c4c(Cl)ccc5[nH]ccc45)c3C(C)C)c12` [compound 67], the Kd is under 20 µM.

The molecule `CCOc1ccc(-c2c(C(=O)O)[nH]c(-c3cccc4[nH]ccc34)c2CC)c(Cl)c1` [compound 23] came in with a Kd of under 20 µM.

Molecule `CC(CO)c1c(-c2cccc3[nH]ccc23)[nH]c(C(=O)O)c1-c1cccc2[nH]ccc12` (stereo not shown) [compound 31] came in with a Kd of under 20 µM.

Turning to `CC(C)c1c(-c2cc(F)cc3[nH]ccc23)[nH]c(C(=O)O)c1-c1cc(OC2COC2)cc2[nH]ccc12` [compound 236], the Kd is under 20 µM.

In the case of `CC(C)c1c(-c2cc(F)cc3[nH]ccc23)[nH]c(C(=O)O)c1-c1cccc2[nH]c(-c3nnn[nH]3)cc12` [compound 194], the Kd is under 20 µM.

For the molecule `CCc1c(-c2cccc3[nH]ccc23)[nH]c(C(=O)O)c1-c1ccc(OC)cc1Cl` [compound 24], the Kd is under 20 µM.

Take `CC(C)c1c(-c2cccc3[nH]ccc23)c(C(=O)O)n2c1-c1cc(F)cc3ccn(c13)[C@H](C)C2` [compound 272]: the Kd is under 20 µM.

`CC(C)c1c(-c2cccc3[nH]ccc23)[nH]c(C(=O)O)c1-c1ccccc1Cl` [compound 17]: the Kd was under 20 µM.

Turning to `CCc1c(-c2cccc3c2ccn3C)[nH]c(C(=O)O)c1-c1ccc(F)c(C)c1` [compound 109], the dissociation constant Kd is over 100 µM.

`COc1cc(-c2c(C(=O)O)[nH]c(-c3cc(F)cc4[nH]ccc34)c2C(C)C)c2ccn(CCNC(=O)Cc3cscn3)c2c1` [compound 178] returned a Kd of under 20 µM.

In turn, `COc1cc(-c2c(C(=O)O)[nH]c(-c3cc(F)cc4[nH]ccc34)c2C(C)C)c2cc(C)[nH]c2c1` [compound 193] showed a Kd of under 20 µM.

Consider `O=C(O)c1ccc(-c2cccc3c2ccn3CCO)[nH]1` [compound 146], for which the Kd is over 100 µM.

In turn, `CCc1c(-c2cccc3[nH]ccc23)[nH]c(C(=O)O)c1-c1ccc(OC)cc1Br` [compound 15] showed an equilibrium dissociation constant (Kd) of under 20 µM.

Molecule `Nc1cccc(-c2ccc(C(=O)O)[nH]2)c1` [compound 125] returned a Kd of over 100 µM.

Take `CC(C)c1c(-c2cc(F)cc3[nH]ccc23)[nH]c(C(=O)O)c1-c1cccc(Oc2nccs2)c1` [compound 64]: the Kd is under 20 µM.

In the case of `CC(C)c1c(-c2cc(F)cc3[nH]ccc23)[nH]c(C(=O)O)c1-c1cccc2[nH]c(CS(N)(=O)=O)cc12` [compound 229], the Kd was under 20 µM.

As to `CC(C)c1c(-c2cc(F)cc3[nH]ccc23)[nH]c(C(=O)O)c1-c1cc(OC2CCCC2)cc2[nH]ccc12` [compound 234], the dissociation constant (Kd) is under 20 µM.

The molecule `CCc1c(-c2c(C)ccc3[nH]ccc23)[nH]c(C(=O)O)c1-c1cccc2[nH]ccc12` [compound 2] showed a Kd of under 20 µM.

On to `CCn1ccc2cc(-c3[nH]c(C(=O)O)c(-c4c(Cl)ccc5[nH]ccc45)c3C(C)C)ccc21` [compound 184], for which the Kd was under 20 µM.

Consider `COc1cc(-c2c(C(=O)O)[nH]c(-c3cc(F)cc4[nH]ccc34)c2C(C)C)c2ccn(CC(N)=O)c2c1` [compound 175], for which the Kd was under 20 µM.

The molecule `CCOc1ccccc1-c1ccc(C(=O)O)[nH]1` [compound 140] came in with a dissociation constant (Kd) of over 100 µM.

In turn, `C#CCOCCOCCOCCC(=O)NCCc1c[nH]c2cc(F)cc(-c3[nH]c(C(=O)O)c(-c4c(Cl)ccc5[nH]ccc45)c3C(C)C)c12` [compound 69] gave a Kd of under 20 µM.

For `CCc1c(-c2cccc3[nH]ccc23)[nH]c(C(=O)O)c1-c1ccc(-c2ccccc2)cc1` [compound 106], the Kd was over 100 µM.

`CCCCc1c(-c2cccc3[nH]ccc23)[nH]c(C(=O)O)c1-c1ccccc1Cl` [compound 162] registered a Kd of over 100 µM.

`COc1cc(-c2c(C(=O)O)[nH]c(-c3cc(F)cc4[nH]ccc34)c2C(C)C)c2ccn(CC(=O)O)c2c1` [compound 46] yielded an equilibrium dissociation constant (Kd) of under 20 µM.

Take `Cc1cccc(-c2ccc(C(=O)O)[nH]2)c1` [compound 128]: the Kd is over 100 µM.
